Reference: ChEMBL document CHEMBL1143051, “Novel cationic lipophilic peptides for oligodeoxynucleotide delivery” (Bioorg Med Chem, 2007)
Square brackets hold non-standard residues; d marks the D form. Peptide text beside a SMILES is read from it. ξ: configuration not given here. ξGly(decyl) = CCCCCCCCCCC(N)C(=O)O

Legend:
[1] = Inhibition of IL2 production in antigen stimulated mouse 2B4.11 T hybridoma cells at 10 uM; format: functional
[2] = Effect on transfection efficacy in human D407 cells assessed as reduction of hVEGF expression after 24 hrs by ELISA; format: functional
[3] = Inhibition of IL2 production in antigen stimulated mouse 2B4.11 T hybridoma cells at 25 uM; format: functional
[4] = Toxicity assessed as induction of haemolysis in rat erythrocytes at 1 mM after 30 mins; format: cell-based, Erythrocyte; conditions: read-out: Activity
[5] = Inhibition of IL2 production in antigen stimulated mouse 2B4.11 T hybridoma cells at 5 uM; format: functional
[6] = Apparent permeability across human Caco-2 cells; format: ADME, cell-based
[7] = Effect on transfection efficacy in human D407 cells assessed as reduction of hVEGF expression after 48 hrs by ELISA; format: functional
T-cell = assay: Inhibition of activation of antigen stimulated mouse 2B4.11 T cells assessed as IL2 production; format: functional, cell-based

In the case of `CC[C@H](C)[C@H](NC(=O)[C@H](CCCNC(=N)N)NC(=O)[C@H](CC(C)C)NC(=O)CN)C(=O)N[C@@H](CC(C)C)C(=O)N[C@@H](CC(C)C)C(=O)N[C@@H](CC(C)C)C(=O)N[C@@H](CCCCN)C(=O)N[C@H](C(=O)O)C(C)C` (H-GLRILLLKV-OH), the Inhibition [1] is reported as 102.53%, the Inhibition [2] is reported as 55% and the Inhibition [3] is reported as 74.52%. It also gave a hemolysis at 0.5 h, 1000 µM [4] of under 2%, an Inhibition [5] of 107% and a Papp [6] of 0.042 ×10⁻⁶ cm/s. It also gave an Inhibition [7] of 63%.

For `CCCCCCCCCCC(N)C(=O)NCC(=O)N[C@@H](CC(C)C)C(=O)N[C@@H](CCCNC(=N)N)C(=O)N[C@H](C(=O)N[C@@H](CC(C)C)C(=O)N[C@@H](CC(C)C)C(=O)N[C@@H](CC(C)C)C(=O)N[C@@H](CCCCN)C(=O)N[C@H](C(=O)O)C(C)C)[C@@H](C)CC` (stereo partly specified) (H-[ξGly(decyl)]GLRILLLKV-OH), the Activity (T-cell) was “Dose-dependent effect”, the Inhibition [1] was 48.13% and the Inhibition [2] was 70%. For the same compound, the Inhibition [3] was 81.17%, the hemolysis at 0.5 h, 1000 µM [4] was under 2% and the Inhibition [5] was 105.7%. For the same compound, the Papp [6] was 0.11 ×10⁻⁶ cm/s and the Inhibition [7] was 76%.

With `OC[C@@H](O)[C@@H](O)[C@H](O)[C@H](O)CO` [MANNITOL] the Papp [6] was 0.555 ×10⁻⁶ cm/s.
